Assay [1] deals with thapsigargin-induced IFN-g production in human whole blood. It is filed as cell-based.
Assay [2] concerns thapsigargin-induced IL-2 production in human whole blood.
[3] abbreviates: read-out: Analogue Activity (IC50) WB/IFNg.
[4] abbreviates: read-out: Analogue Activity (IC50) WB/IL-2.

Like-named read-outs stand apart in the source and are kept apart here. Bridge positions count the residues as written; N and C are the ends. Square brackets hold non-standard residues; d marks the D form. Peptide text beside a SMILES is read from it. 1Nal = N[C@@H](Cc1cccc2ccccc12)C(=O)O

Consider `CC[C@H](C)[C@@H]1NC(=O)[C@H](CCCCN)NC(=O)[C@@H](NC(=O)[C@H](CCCCN)NC(=O)[C@@H](NC(=O)[C@H](CC(N)=O)NC(=O)[C@@H](NC(=O)[C@@H](NC(=O)[C@@H](NC(=O)CN)C(C)C)[C@@H](C)CC)[C@@H](C)CC)C(C)C)CSSC[C@@H]2NC(=O)[C@H](CCCCN)NC(=O)CNC(=O)[C@H](Cc3ccccc3)NC(=O)[C@H](CCCNC(=N)N)NC(=O)[C@H](CCSC)NC(=O)CNC(=O)[C@H](C)NC(=O)[C@H](CCCCN)NC(=O)[C@H](CCCCN)NC(=O)[C@@H]3CSSC[C@@H](C(=O)N[C@H](C(=O)N4CCC[C@H]4C(=O)N[C@@H](CCCCN)C(=O)O)[C@@H](C)O)NC(=O)[C@H](Cc4c[nH]cn4)NC(=O)[C@H](CSSC[C@H](NC(=O)[C@H](CCC(N)=O)NC(=O)[C@H](CCCNC(=N)N)NC(=O)[C@H](CO)NC1=O)C(=O)N[C@@H](CC(C)C)C(=O)N[C@@H](CCC(=O)O)C(=O)N[C@@H](Cc1cccc4ccccc14)C(=O)N3)NC(=O)[C@H](CCCCN)NC(=O)CNC(=O)[C@H](CC(N)=O)NC(=O)[C@H](CCSC)NC2=O` [P17Nal] (H-GVIINVKCKISRQCLE[1Nal]CKKAGMRFGKCMNGKCHCTPK-OH; disulfide 8-28, 14-33, 18-35), for which the IC50 in assay [1] (setting [3]) was 0.357 nM; in assay [2] (setting [4]), 0.193 nM.
In the same order, the values of `CC[C@H](C)[C@@H]1NC(=O)[C@H](CCCCN)NC(=O)[C@@H](NC(=O)[C@H](CCCCN)NC(=O)[C@@H](NC(=O)[C@H](CC(N)=O)NC(=O)[C@@H](NC(=O)[C@@H](NC(=O)[C@@H](NC(=O)CN)C(C)C)[C@@H](C)CC)[C@@H](C)CC)C(C)C)CSSC[C@@H]2NC(=O)[C@H](CCCCN)NC(=O)CNC(=O)[C@H](Cc3ccccc3)NC(=O)[C@H](CCCNC(=N)N)NC(=O)[C@H](CCSC)NC(=O)CNC(=O)[C@H](C)NC(=O)[C@H](CCCCN)NC(=O)[C@H](CCCCN)NC(=O)[C@@H]3CSSC[C@@H](C(=O)N[C@H](C(=O)N4CCC[C@H]4C(=O)N[C@@H](CCCCN)C(=O)O)[C@@H](C)O)NC(=O)[C@H](Cc4c[nH]cn4)NC(=O)[C@H](CSSC[C@H](NC(=O)[C@H](CCC(=O)O)NC(=O)[C@H](CCCNC(=N)N)NC(=O)[C@H](CO)NC1=O)C(=O)N[C@@H](CC(C)C)C(=O)N[C@@H](CCC(=O)O)C(=O)N1CCC[C@H]1C(=O)N3)NC(=O)[C@H](CCCCN)NC(=O)CNC(=O)[C@H](CC(N)=O)NC(=O)[C@H](CCSC)NC2=O` [Q13E] (H-GVIINVKCKISRECLEPCKKAGMRFGKCMNGKCHCTPK-OH; disulfide 8-28, 14-33, 18-35) are 0.799 nM and 1.06 nM.
Turning to `CC[C@H](C)[C@@H]1NC(=O)[C@H](CCCCN)NC(=O)[C@@H](NC(=O)[C@H](CCCCN)NC(=O)[C@@H](NC(=O)[C@H](CC(N)=O)NC(=O)[C@@H](NC(=O)[C@@H](NC(=O)[C@@H](NC(=O)CN)C(C)C)[C@@H](C)CC)[C@@H](C)CC)C(C)C)CSSC[C@@H]2NC(=O)[C@H](CCCCN)NC(=O)CNC(=O)[C@H](Cc3ccccc3)NC(=O)[C@H](CCCNC(=N)N)NC(=O)[C@H](CCSC)NC(=O)CNC(=O)[C@H](C)NC(=O)[C@H](CCCCN)NC(=O)[C@H](CCCCN)NC(=O)[C@@H]3CSSC[C@@H](C(=O)N[C@H](C(=O)N4CCC[C@H]4C(=O)N[C@@H](CCCCN)C(=O)O)[C@@H](C)O)NC(=O)[C@H](Cc4c[nH]cn4)NC(=O)[C@H](CSSC[C@H](NC(=O)[C@H](CCC(N)=O)NC(=O)[C@H](CCCNC(=N)N)NC(=O)[C@H](CO)NC1=O)C(=O)N[C@@H](C)C(=O)N[C@@H](CCC(=O)O)C(=O)N1CCC[C@H]1C(=O)N3)NC(=O)[C@H](CCCCN)NC(=O)CNC(=O)[C@H](CC(N)=O)NC(=O)[C@H](CCSC)NC2=O` [L15A] (H-GVIINVKCKISRQCAEPCKKAGMRFGKCMNGKCHCTPK-OH; disulfide 8-28, 14-33, 18-35), the IC50 in assay [1] (setting [3]) and in assay [2] (setting [4]) was 0.107 nM throughout.
Consider “GVAINVKCKISRQCLEPCKKAGMRFGKCMNGKCHCTPK [Ala-3 (SEQ ID No: 1402)]”, for which the IC50 in assay [1] (read-out: Average IC50 IFNg) turned out to be 0.0992 nM; in assay [2] (read-out: Average IC50 IL-2) it was 0.0883 nM.
`CC[C@H](C)[C@@H]1NC(=O)[C@H](CCCCN)NC(=O)[C@@H](NC(=O)[C@H](CCCCN)NC(=O)[C@@H](NC(=O)[C@H](CC(N)=O)NC(=O)[C@@H](NC(=O)[C@H](Cc2cccc3ccccc23)NC(=O)[C@@H](NC(=O)CN)C(C)C)[C@@H](C)CC)C(C)C)CSSC[C@@H]2NC(=O)[C@H](CCCCN)NC(=O)CNC(=O)[C@H](Cc3ccccc3)NC(=O)[C@H](CCCNC(=N)N)NC(=O)[C@H](CCSC)NC(=O)CNC(=O)[C@H](C)NC(=O)[C@H](CCCCN)NC(=O)[C@H](CCCCN)NC(=O)[C@@H]3CSSC[C@@H](C(=O)N[C@H](C(=O)N4CCC[C@H]4C(=O)N[C@@H](CCCCN)C(=O)O)[C@@H](C)O)NC(=O)[C@H](Cc4c[nH]cn4)NC(=O)[C@H](CSSC[C@H](NC(=O)[C@H](CCC(N)=O)NC(=O)[C@H](CCCNC(=N)N)NC(=O)[C@H](CO)NC1=O)C(=O)N[C@@H](CC(C)C)C(=O)N[C@@H](CCC(=O)O)C(=O)N1CCC[C@H]1C(=O)N3)NC(=O)[C@H](CCCCN)NC(=O)CNC(=O)[C@H](CC(N)=O)NC(=O)[C@H](CCSC)NC2=O` [I3Nal] (H-GV[1Nal]INVKCKISRQCLEPCKKAGMRFGKCMNGKCHCTPK-OH; disulfide 8-28, 14-33, 18-35): the IC50 in assay [1] (setting [3]) amounted to 0.739 nM; in assay [2] (setting [4]) it was 0.907 nM.
As to “GVIINVKCKISRQCLAPCKKAGMRFGKCMNGKCHCTPK [Ala-16 (SEQ ID No: 1413)]”, the IC50 in assay [1] (read-out: Average IC50 IFNg) and in assay [2] (read-out: Average IC50 IL-2) was 0.101 nM each time.
With “E16K, K20D, des36-38 (GVIINVKCKISRQCLKPCKDAGMRFGKCMNGKCHC)”, the IC50 in assay [1] (read-out: WB/IFNg (IC50)) was 6.99 nM; in assay [2] (read-out: WB/IL-2 (IC50)), 3.94 nM.
Consider `CC[C@H](C)[C@@H]1NC(=O)[C@H](CCCCN)NC(=O)[C@@H](NC(=O)[C@H](CCCCN)NC(=O)[C@@H](NC(=O)[C@H](CC(N)=O)NC(=O)[C@@H](NC(=O)[C@@H](NC(=O)[C@@H](NC(=O)CN)C(C)C)[C@@H](C)CC)[C@@H](C)CC)C(C)C)CSSC[C@@H]2NC(=O)[C@H](CCCCN)NC(=O)CNC(=O)[C@H](Cc3ccccc3)NC(=O)[C@H](CCCNC(=N)N)NC(=O)[C@H](CCSC)NC(=O)CNC(=O)[C@H](C)NC(=O)[C@H](CCCCN)NC(=O)[C@H](CCCCN)NC(=O)[C@@H]3CSSC[C@@H](C(=O)N[C@H](C(=O)N[C@@H](Cc4cccc5ccccc45)C(=O)N[C@@H](CCCCN)C(=O)O)[C@@H](C)O)NC(=O)[C@H](Cc4c[nH]cn4)NC(=O)[C@H](CSSC[C@H](NC(=O)[C@H](CCC(N)=O)NC(=O)[C@H](CCCNC(=N)N)NC(=O)[C@H](CO)NC1=O)C(=O)N[C@@H](CC(C)C)C(=O)N[C@@H](CCC(=O)O)C(=O)N1CCC[C@H]1C(=O)N3)NC(=O)[C@H](CCCCN)NC(=O)CNC(=O)[C@H](CC(N)=O)NC(=O)[C@H](CCSC)NC2=O` [P37Nal] (H-GVIINVKCKISRQCLEPCKKAGMRFGKCMNGKCHCT[1Nal]K-OH; disulfide 8-28, 14-33, 18-35), for which the IC50 is 3.04 nM in assay [1] (setting [3]) and 1.76 nM in assay [2] (setting [4]).
For “GGGGS-Osk1 (GGGGSGVIINVKCKISRQCLEPCKKAGMRFGKCMNGKCHCTPK)”, the IC50 is 2.2 nM in assay [1] (read-out: WB/IFNg (IC50)) and 1.36 nM in assay [2] (read-out: WB/IL-2 (IC50)).
With `CC[C@H](C)[C@H](NC(=O)[C@@H](NC(=O)CN)C(C)C)C(=O)N[C@H](C(=O)N[C@@H](CC(N)=O)C(=O)N[C@H](C(=O)N[C@@H](CCCCN)C(=O)N[C@H]1CSSC[C@@H]2NC(=O)[C@H](CCCCN)NC(=O)CNC(=O)[C@H](Cc3ccccc3)NC(=O)[C@H](CCCNC(=N)N)NC(=O)[C@H](CCSC)NC(=O)CNC(=O)[C@H](C)NC(=O)[C@H](CCCCN)NC(=O)[C@H](CCCCN)NC(=O)[C@@H]3CSSC[C@@H](C(=O)N[C@H](C(=O)N4CCC[C@H]4C(=O)N[C@@H](CCCCN)C(=O)O)[C@@H](C)O)NC(=O)[C@H](Cc4c[nH]cn4)NC(=O)[C@H](CSSC[C@H](NC(=O)[C@H](CCC(N)=O)NC(=O)[C@H](CCCNC(=N)N)NC(=O)[C@H](CO)NC(=O)[C@H](CCC(=O)O)NC(=O)[C@H](CCCCN)NC1=O)C(=O)N[C@@H](CC(C)C)C(=O)N[C@@H](CCC(=O)O)C(=O)N1CCC[C@H]1C(=O)N3)NC(=O)[C@H](CCCCN)NC(=O)CNC(=O)[C@H](CC(N)=O)NC(=O)[C@H](CCSC)NC2=O)C(C)C)[C@@H](C)CC` [I10E] (H-GVIINVKCKESRQCLEPCKKAGMRFGKCMNGKCHCTPK-OH; disulfide 8-28, 14-33, 18-35), the IC50 in assay [1] (setting [3]) is 2.74 nM; in assay [2] (setting [4]), 2.57 nM.
Turning to “GVIINVKCKISRQCLEPCKKAGMRAGKCMNGKCHCTPK [Ala-25 (SEQ ID No: 1421)]”, the IC50 in assay [1] (read-out: Average IC50 IFNg) and in assay [2] (read-out: Average IC50 IL-2) was 3.08 nM each time.
With `CC[C@H](C)[C@@H]1NC(=O)[C@H](CCCCN)NC(=O)[C@@H](NC(=O)[C@H](CCCCN)NC(=O)[C@@H](NC(=O)[C@H](CC(N)=O)NC(=O)[C@@H](NC(=O)[C@@H](NC(=O)[C@@H](NC(=O)CN)C(C)C)[C@@H](C)CC)[C@@H](C)CC)C(C)C)CSSC[C@@H]2NC(=O)[C@H](CCCCN)NC(=O)CNC(=O)[C@H](Cc3ccccc3)NC(=O)[C@H](CCCNC(=N)N)NC(=O)[C@H](CCSC)NC(=O)CNC(=O)[C@H](C)NC(=O)[C@H](CCCCN)NC(=O)[C@H](CCCCN)NC(=O)[C@@H]3CSSC[C@@H](C(=O)N[C@H](C(=O)N4CCC[C@H]4C(=O)N[C@@H](CCCCN)C(=O)O)[C@@H](C)O)NC(=O)[C@H](Cc4c[nH]cn4)NC(=O)[C@H](CSSC[C@H](NC(=O)[C@H](CCC(N)=O)NC(=O)[C@H](CCCNC(=N)N)NC(=O)[C@H](CO)NC1=O)C(=O)N[C@@H](CC(C)C)C(=O)N[C@@H](C)C(=O)N1CCC[C@H]1C(=O)N3)NC(=O)[C@H](CCCCN)NC(=O)CNC(=O)[C@H](CC(N)=O)NC(=O)[C@H](CCSC)NC2=O` [E16A] (H-GVIINVKCKISRQCLAPCKKAGMRFGKCMNGKCHCTPK-OH; disulfide 8-28, 14-33, 18-35), the IC50 in assay [1] (setting [3]) and in assay [2] (setting [4]) was 0.101 nM in each case.

The record behind these values is US7820623B2 (priority 2006, dated 2010).
